Test results reported in patent publication US20250144067A1, “PERSONALIZED STARVATION THERAPY FOR CANCER” (Faeth Therapeutics, Inc., priority 2021, published 2025).
Where a name gives a salt, the structure may show the parent alone.

Key:
[1] = system: NCI-H292 lung cancer cells; experiment: FDA drug screening, complete media vs cholesterol-free media without statin (TABLE 1); format: cell-based, human
[2] = system: NCI-H292 lung cancer cells; experiment: FDA drug screening, complete media vs cholesterol-free media with simvastatin (TABLE 2); format: cell-based, human; settings: for Cholesterol-free media + simvastatin (0.04 μM) / Complete Media: NCI-H292 cells
[3] = Complete minus Cholesterol-free, >0 enhanced anti-cancer activity, about 0 neutral, <0 antagonist
[4] = NCI-H292 cells, cholesterol-free media without statin, FDA drug library screen
[5] = NCI-H292 cells, complete media, FDA drug library screen
[6] = cholesterol-free media with simvastatin 0.04 μM, cell growth value in FDA drug screen
[7] = complete media, cell growth value in FDA drug screen
[8] = complete media minus cholesterol-free media + simvastatin, >0 enhanced anti-cancer activity, about 0 neutral, <0 antagonist
[9] = drug in cholesterol-free media with simvastatin 0.04 μM
[10] = complete media vs cholesterol-free media + simvastatin (0.04 μM), >0 enhanced anti-cancer activity, about 0 neutral, <0 antagonist
[11] = FDA drug library screen, cholesterol-free media with simvastatin 0.04 μM
[12] = FDA drug library screen, complete media
[13] = NCI-H292 cells, cholesterol-free media without statin
[14] = complete vs cholesterol-free media, greater than 0 enhanced anti-cancer activity, about 0 neutral, below 0 antagonists
[15] = complete vs cholesterol-free media, >0 enhanced anti-cancer activity, about 0 neutral, <0 antagonist
[16] = cholesterol-free media with simvastatin 0.04 μM, FDA drug library screen (TABLE 2)
[17] = complete media, FDA drug library screen (TABLE 2)
[18] = complete media minus cholesterol-free media + simvastatin (0.04 μM), >0 enhanced anti-cancer activity, about 0 neutral, <0 antagonist

Compound	Difference [1, 3]	Cholesterol-free [1, 4]	Complete [1, 5]	Difference [2, 8]	Cholesterol-free media + simvastatin (0.04 μM) [2, 9]	Complete Media ([2]; drug in complete media)	Difference [2, 10]	Cholesterol-free media + simvastatin (0.04 μM) [2, 11]	Complete Media [2, 12]	Cholesterol-free [1, 13]	Complete ([1]; NCI-H292 cells, complete media)	further results
Fc1ccc(C(c2ccc(F)cc2)N2CCN(C/C=C/c3ccccc3)CC2)cc1 [Flunarizine (dihydrochloride)]	0.07	0.971	1.036	0.04	–	–	–	–	–	–	–	Cholesterol-free media + simvastatin (0.04 μM) [2, 6]: 0.8172; Complete Media [2, 7]: 0.8617
CC1(C)O[C@@H]2C[C@H]3[C@@H]4C[C@H](F)C5=CC(=O)C=C[C@]5(C)[C@H]4[C@@H](O)C[C@]3(C)[C@]2(C(=O)CO)O1 [Flunisolide]	−0.06	0.8546	0.7935	0.07	–	–	–	–	–	–	–	Cholesterol-free media + simvastatin (0.04 μM) [2, 6]: 0.5373; Complete Media [2, 7]: 0.6048
CC1(C)O[C@@H]2C[C@H]3[C@@H]4C[C@H](F)C5=CC(=O)C=C[C@]5(C)[C@@]4(F)[C@@H](O)C[C@]3(C)[C@]2(C(=O)CO)O1 [Fluocinolone (Acetonide)]	0.01	0.5523	0.5617	–	0.6444	0.4689	−0.18	–	–	–	–	–
CC(=O)OCC(=O)[C@@]12OC(C)(C)O[C@@H]1C[C@H]1[C@@H]3C[C@H](F)C4=CC(=O)C=C[C@]4(C)[C@@]3(F)[C@@H](O)C[C@@]12C [Fluocinonide]	−0.04	0.5848	0.544	0.20	–	–	–	0.6998	0.898	–	–	–
O=C1OC2(c3ccc(O)cc3Oc3cc(O)ccc32)c2ccccc21 [Fluorescein]	–	–	–	–	1.054	0.8464	−0.21	–	–	1.153	0.6958	Difference [1, 14]: −0.46
CC(=O)O[C@]1(C(C)=O)CC[C@H]2[C@@H]3C[C@H](C)C4=CC(=O)C=C[C@]4(C)[C@@]3(F)[C@@H](O)C[C@@]21C [Fluorometholone acetate]	–	–	–	0.33	–	–	–	0.6176	0.9441	0.9866	0.5758	Difference [1, 14]: −0.41
CC(=O)[C@@]1(O)CC[C@H]2[C@@H]3C[C@H](C)C4=CC(=O)C=C[C@]4(C)[C@@]3(F)[C@@H](O)C[C@@]21C [Fluorometholone]	–	–	–	–	0.7423	0.5602	−0.18	–	–	–	–	Difference ([1]; Complete minus Cholesterol-free, greater than 0 enhanced anti-cancer activity, about 0 neutral, below 0 antagonist): −0.08; Cholesterol-free ([1]; NCI-H292 cells, FDA drug library screen, cholesterol-free media without statin): 1.249
CNCCC(Oc1ccc(C(F)(F)F)cc1)c1ccccc1 (centres unmarked) [Fluoxetine (hydrochloride)]	–	–	–	0.15	–	–	–	0.8887	1.043	1.383	0.9864	Difference [1, 14]: −0.40
CCCCCCCCCC(=O)OCCN1CCN(CCCN2c3ccccc3Sc3ccc(C(F)(F)F)cc32)CC1 [Fluphenazine decanoate]	–	0.4638	1.069	0.23	–	–	–	0.7434	0.9759	–	–	Difference [1, 15]: 0.60
Cc1cc(C2=NOC(c3cc(Cl)cc(Cl)c3)(C(F)(F)F)C2)ccc1C(=O)NCC(=O)NCC(F)(F)F (centres unmarked) [Fluralaner]	–	0.6434	1.375	–	1.609	1.41	–	–	–	–	–	Difference ([1]; complete vs cholesterol-free media, […]): 0.73; Difference ([2]; complete media vs cholesterol-free media + simvastatin (0.04 μM), […]): −0.20
CC(C(=O)O)c1ccc(-c2ccccc2)c(F)c1 (centres unmarked) [Flurbiprofen]	–	1.072	1.387	–	1.217	1.042	−0.18	–	–	–	–	Difference [1, 15]: 0.31
O=C1NCN(c2ccccc2)C12CCN(CCCC(c1ccc(F)cc1)c1ccc(F)cc1)CC2 [Fluspirilene]	–	–	–	–	–	–	–	–	–	1.319	0.9067	Difference [1, 14]: −0.41; Cholesterol-free media + simvastatin (0.04 μM) [2, 16]: 1.267; Complete Media [2, 17]: 1.241; Difference [2, 18]: −0.03
CC(C)C(=O)Nc1ccc([N+](=O)[O-])c(C(F)(F)F)c1 [Flutamide]	−0.27	–	–	–	–	–	–	–	–	1.049	0.7826	Cholesterol-free media + simvastatin (0.04 μM) [2, 16]: 0.8786; Complete Media [2, 17]: 0.855; Difference [2, 18]: −0.02
CCC(=O)O[C@]1(C(=O)SCF)[C@H](C)C[C@H]2[C@@H]3C[C@H](F)C4=CC(=O)C=C[C@]4(C)[C@@]3(F)[C@@H](O)C[C@@]21C [Fluticasone (propionate)]	–	–	–	–	–	–	−0.14	0.7423	0.6072	–	–	Difference ([1]; Complete minus Cholesterol-free, greater than 0 enhanced anti-cancer activity, about 0 neutral, below 0 antagonists): −0.60; Cholesterol-free ([1]; NCI-H292 cells in cholesterol-free media without statin): 1.466; Complete ([1]; NCI-H292 cells in complete media): 0.8611
